Consider four compounds from patent US7683048B2, “Polymorphis of a known thiophenecarboxylic acid dodecahydrocyclopenta (a) phenanthrenyl ester” (Novartis AG, priority 2002, dated 2010).

Format in all cases: physicochemical
Series [1] is described as follows: Stability of crystal forms after 4 weeks at 80° C., analyzed by XRPD. The conditions noted are these: for Conversion in the solid state on storage: stored for 4 weeks at 80° C.; for Crystal form found by XRPD after storage (stability): 4 weeks at 80° C. The method, then: Samples of the compound of formula I in crystal form A, the compound of formula I in crystal form B, a mixture of both crystal forms and an amorphous form of the compound of formula I (obtained by spray drying) are stored for 4 weeks at 80° C. under different conditions and analyzed by X-ray powder diffraction (XRPD).

A short description of series [2]: Interconversion of crystal forms in the presence of solvent.
A short description of series [3]: Heat of solution at 25° C. in acetone. The method, then: The heat of solution of samples of crystal forms A and B of the compound of formula I are measured at 25° C. in acetone.

Take `COC(=O)[C@@]1(OC(=O)c2sccc2C)[C@H](C)CC2C3C[C@H](F)C4=CC(=O)C=C[C@]4(C)[C@@]3(Cl)[C@@H](O)C[C@@]21C` (stereo partly drawn) [Amorphous form, 3-methylthiophene-2-carboxylic acid (6S,9R,10S,11S, 13S,16R,17R)-9-chloro-6-fluoro-11-hydroxy-17-methoxycarbonyl-10,13,16-trimethyl-3-oxo-6,7,8,9,10,11,12,13,14,15,16,17-dodecahydro-3H-cyclopenta[a]phenanthren-17-yl ester]: the “Conversion in the solid state on storage” value in series [1] (solid state, listed as amorphous form) is “can also convert into crystal form A”.
On to `COC(=O)[C@@]1(OC(=O)c2sccc2C)[C@H](C)CC2C3C[C@H](F)C4=CC(=O)C=C[C@]4(C)[C@@]3(Cl)[C@@H](O)C[C@@]21C` (stereo partly drawn) [Crystal form A, 3-methylthiophene-2-carboxylic acid (6S,9R,10S,11S, 13S,16R,17R)-9-chloro-6-fluoro-11-hydroxy-17-methoxycarbonyl-10,13,16-trimethyl-3-oxo-6,7,8,9,10,11,12,13,14,15,16,17-dodecahydro-3H-cyclopenta[a]phenanthren-17-yl ester], for which, in series [2] (in the presence of ethanol), the “Conversion of crystal form in the presence of ethanol” value is reported as “converts to crystal form B”. In series [3] (listed as A), this compound showed a Heat of solution of 29.3 J/g. For the same compound, the “Relative thermodynamic stability (from heat of solution)” value in series [3] (versus crystal form B) is reported as “more thermodynamically stable than crystal form B”. Also, the “Relative thermodynamic stability (from storage test)” value in series [1] (solid state, versus crystal form B) was “more thermodynamically stable than crystal form B”.
`COC(=O)[C@@]1(OC(=O)c2sccc2C)[C@H](C)CC2C3C[C@H](F)C4=CC(=O)C=C[C@]4(C)[C@@]3(Cl)[C@@H](O)C[C@@]21C` (stereo partly drawn) [Crystal form B, 3-methylthiophene-2-carboxylic acid (6S,9R,10S,11S, 13S,16R,17R)-9-chloro-6-fluoro-11-hydroxy-17-methoxycarbonyl-10,13,16-trimethyl-3-oxo-6,7,8,9,10,11,12,13,14,15,16,17-dodecahydro-3H-cyclopenta[a]phenanthren-17-yl ester]: in series [2] (in the presence of isopropanol), the “Conversion of crystal form in the presence of isopropanol” value is on record as “converts to crystal form A”. In addition, the Heat of solution in series [3] (listed as B) stood at 17.9 J/g. The “Crystal form found by XRPD after storage (stability)” value is on record as “A + B” in series [1] (75% r.h. (relative humidity), open); “A + B” in series [1] (N2 + 2% water); “A + B” in series [1] (O2). Further, in series [1] (solid state, listed as crystal form B), the “Conversion in the solid state on storage” value was “can convert at least partially in the solid state into crystal form A”.
As for `COC(=O)[C@@]1(OC(=O)c2sccc2C)[C@H](C)CC2C3C[C@H](F)C4=CC(=O)C=C[C@]4(C)[C@@]3(Cl)[C@@H](O)C[C@@]21C` (stereo partly drawn) [Crystal forms A + B, 3-methylthiophene-2-carboxylic acid (6S,9R,10S,11S, 13S,16R,17R)-9-chloro-6-fluoro-11-hydroxy-17-methoxycarbonyl-10,13,16-trimethyl-3-oxo-6,7,8,9,10,11,12,13,14,15,16,17-dodecahydro-3H-cyclopenta[a]phenanthren-17-yl ester], the “Crystal form found by XRPD after storage (stability)” value in series [1] (N2) and in series [1] (sealed) was “A + B” throughout.
